Data: patent US9737542B2, “Pyrrolotriazine kinase inhibitors” (BRISTOL-MYERS SQUIBB COMPANY, priority 2013, dated 2017)

These compounds were tested against GST-Xa-hAAK1 (Homo sapiens (Human), UniProt Q2M2I8) (assay: AAK1 Kinase Assay). Settings: ATP 22 μM; 3 hours at room temperature.
Sequence of GST-Xa-hAAK1 (Q2M2I8 whole entry): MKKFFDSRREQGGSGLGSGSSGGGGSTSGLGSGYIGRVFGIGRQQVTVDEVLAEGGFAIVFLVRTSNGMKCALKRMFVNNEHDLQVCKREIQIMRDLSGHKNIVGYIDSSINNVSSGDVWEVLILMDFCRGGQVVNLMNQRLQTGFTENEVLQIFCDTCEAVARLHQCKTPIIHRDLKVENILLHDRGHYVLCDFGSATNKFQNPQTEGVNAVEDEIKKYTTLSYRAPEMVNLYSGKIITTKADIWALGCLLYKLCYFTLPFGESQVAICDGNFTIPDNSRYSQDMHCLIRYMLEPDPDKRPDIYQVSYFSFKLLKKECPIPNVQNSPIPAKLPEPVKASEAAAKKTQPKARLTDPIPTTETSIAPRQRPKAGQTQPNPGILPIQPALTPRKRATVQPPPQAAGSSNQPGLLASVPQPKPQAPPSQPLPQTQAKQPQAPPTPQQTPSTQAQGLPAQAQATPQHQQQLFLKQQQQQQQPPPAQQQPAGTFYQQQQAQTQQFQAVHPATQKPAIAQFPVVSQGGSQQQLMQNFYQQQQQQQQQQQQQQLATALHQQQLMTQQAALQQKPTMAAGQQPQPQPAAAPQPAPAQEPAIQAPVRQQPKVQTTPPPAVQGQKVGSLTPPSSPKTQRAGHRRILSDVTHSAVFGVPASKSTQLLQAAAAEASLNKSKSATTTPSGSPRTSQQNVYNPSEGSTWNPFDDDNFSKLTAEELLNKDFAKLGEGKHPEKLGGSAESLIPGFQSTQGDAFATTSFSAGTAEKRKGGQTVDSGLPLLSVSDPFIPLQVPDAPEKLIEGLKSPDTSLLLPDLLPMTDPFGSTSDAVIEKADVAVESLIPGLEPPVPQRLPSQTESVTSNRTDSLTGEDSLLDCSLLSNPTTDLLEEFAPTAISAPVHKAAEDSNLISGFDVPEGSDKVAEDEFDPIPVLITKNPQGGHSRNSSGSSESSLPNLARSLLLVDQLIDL
Type: biochemical
Experimental: The assays were performed in U-bottom 384-well plates. […] The reactions were initiated by the combination of bacterially expressed, GST-Xa-hAAK1 with substrates and test compounds. The reactions were incubated at room temperature for 3 hours and terminated by adding 60 μl of 35 mM EDTA buffer to each sample. The reactions were analyzed on the Caliper LabChip 3000 (Caliper, Hopkinton, Mass.) by electrophoretic separation of the fluorescent substrate and phosphorylated product. Inhibition data were calculated by comparison to EDTA quenched control reactions for 100% inhibition and vehicle-only reactions for 0% inhibition. […] Dose response curves were generated to determine the concentration required inhibiting 50% of kinase activity (IC50). Compounds were dissolved at 10 mM in dimethylsulfoxide (DMSO) and evaluated at eleven concentrations. IC50 values were derived by non-linear regression analysis.
Work on CC(C)n1nnc(-c2cccc(Nc3ncnn4ccc(CN5CCC(N)CC5)c34)c2)n1 [Example 8, 5-((4-aminopiperidin-1-yl)methyl)-N-(3-(2-isopropyl-2H-tetrazol-5-yl)phenyl)pyrrolo[2,1-f][1,2,4]triazin-4-amine] yielded an IC50 of 7.3 nM. Cn1ccc(-c2cccc(Nc3ncnn4ccc(CN5CCC(N)CC5)c34)c2)n1 [Example 12, 5-((4-aminopiperidin-1-yl)methyl)-N-(3-(1-methyl-1H-pyrazol-3-yl)phenyl)pyrrolo[2,1-f][1,2,4]triazin-4-amine] showed an IC50 of 446 nM. Cc1nnc(-c2cccc(Nc3ncnn4ccc(CN5CC(N)C5)c34)c2)s1 [Example 19, 5-((3-aminoazetidin-1-yl)methyl)-N-(3-(5-methyl-1,3,4-thiadiazol-2-yl)phenyl)pyrrolo[2,1-f][1,2,4]triazin-4-amine] was tested, and the IC50 was 2120 nM. NC1CCN(Cc2ccn3ncnc(Nc4cccc(-c5noc(C6CCCCC6)n5)c4)c23)CC1 [Example 22, 5-((4-aminopiperidin-1-yl)methyl)-N-(3-(5-cyclohexyl-1,2,4-oxadiazol-3-yl)phenyl)pyrrolo[2,1-f][1,2,4]triazin-4-amine] showed an IC50 of 14 nM.

Same assay, conditions: ATP 22 μM; 3 hours at room temperature; listed as IC50 ranges
Compound NC1CCN(Cc2ccn3ncnc(Nc4cccc(-c5cnco5)c4)c23)CC1 [Example 1, 5-((4-aminopiperidin-1-yl)methyl)-N-(3-(oxazol-5-yl)phenyl)pyrrolo[2,1-f][1,2,4]triazin-4-amine] has an IC50 of 100 to 1000 nM. CC(C)c1nc(-c2cccc(Nc3ncnn4ccc(CN5CCC(N)CC5)c34)c2)no1 [Example 2, 5-((4-aminopiperidin-1-yl)methyl)-N-(3-(5-isopropyl-1,2,4-oxadiazol-3-yl)phenyl)pyrrolo[2,1-f][1,2,4]triazin-4-amine] was tested, and the IC50 was 10 to 100 nM. In the case of CC(C)c1nc(-c2ccc(O)c(Nc3ncnn4ccc(CN5CCC(N)CC5)c34)c2)no1 [Example 3, 2-((5-((4-aminopiperidin-1-yl)methyl)pyrrolo[2,1-f][1,2,4]triazin-4-yl)amino)-4-(5-isopropyl-1,2,4-oxadiazol-3-yl)phenol], the IC50 is reported as 10 to 100 nM. With C=Cc1cccc(Nc2ncnn3ccc(CN4CCC(N)CC4)c23)c1 [Example 4, 5-((4-aminopiperidin-1-yl)methyl)-N-(3-vinylphenyl)pyrrolo[2,1-f][1,2,4]triazin-4-amine] the IC50 was 100 to 1000 nM. For CC(C)(C)c1nc(-c2cccc(Nc3ncnn4ccc(CN5CCC(N)CC5)c34)c2)no1 [Example 5, 5-((4-aminopiperidin-1-yl)methyl)-N-(3-(5-(tert-butyl)-1,2,4-oxadiazol-3-yl)phenyl)pyrrolo[2,1-f][1,2,4]triazin-4-amine], the IC50 was 10 to 100 nM. In the case of CCC(C)(C)c1nc(-c2cccc(Nc3ncnn4ccc(CN5CCC(N)CC5)c34)c2)no1 [Example 6, 5-((4-aminopiperidin-1-yl)methyl)-N-(3-(5-(tert-pentyl)-1,2,4-oxadiazol-3-yl)phenyl)pyrrolo[2,1-f][1,2,4]triazin-4-amine], the IC50 is reported as 10 to 100 nM. In the case of NC1CCN(Cc2ccn3ncnc(Nc4cc(O)cc(-c5ncco5)c4)c23)CC1 [Example 7, 3-((5-((4-aminopiperidin-1-yl)methyl)pyrrolo[2,1-f][1,2,4]triazin-4-yl)amino)-5-(oxazol-2-yl)phenol], the IC50 is reported as 100 to 1000 nM. In the case of CC(C)c1nnc(-c2cccc(Nc3ncnn4ccc(CN5CCC(N)CC5)c34)c2)s1 [Example 9, 5-((4-aminopiperidin-1-yl)methyl)-N-(3-(5-isopropyl-1,3,4-thiadiazol-2-yl)phenyl)pyrrolo[2,1-f][1,2,4]triazin-4-amine], the IC50 is reported as 10 to 100 nM. CC(C)(CO)c1nc(-c2cccc(Nc3ncnn4ccc(CN5CCC(N)CC5)c34)c2)no1 [Example 10, 2-(3-(3-((5-((4-aminopiperidin-1-yl)methyl)pyrrolo[2,1-f][1,2,4]triazin-4-yl)amino)phenyl)-1,2,4-oxadiazol-5-yl)-2-methylpropan-1-ol] gave an IC50 of 10 to 100 nM. Work on NC1CCN(Cc2ccn3ncnc(Nc4cccc(-c5noc(CCl)n5)c4)c23)CC1 [Example 11, 5-((4-aminopiperidin-1-yl)methyl)-N-(3-(5-(chloromethyl)-1,2,4-oxadiazol-3-yl)phenyl)pyrrolo[2,1-f][1,2,4]triazin-4-amine] yielded an IC50 of 100 to 1000 nM. Cc1nc(-c2cccc(Nc3ncnn4ccc(CN5CCC(N)CC5)c34)c2)no1 [Example 13, 5-((4-aminopiperidin-1-yl)methyl)-N-(3-(5-methyl-1,2,4-oxadiazol-3-yl)phenyl)pyrrolo[2,1-f][1,2,4]triazin-4-amine] gave an IC50 of 100 to 1000 nM. NC1CCN(Cc2ccn3ncnc(Nc4cccc(-c5csnn5)c4)c23)CC1 [Example 14, N-(3-(1,2,3-thiadiazol-4-yl)phenyl)-5-((4-aminopiperidin-1-yl)methyl)pyrrolo[2,1-f][1,2,4]triazin-4-amine] gave an IC50 of 100 to 1000 nM. CCc1nnc(-c2cccc(Nc3ncnn4ccc(CN5CCC(N)CC5)c34)c2)[nH]1 [Example 15, 5-((4-aminopiperidin-1-yl)methyl)-N-(3-(5-ethyl-4H-1,2,4-triazol-3-yl)phenyl)pyrrolo[2,1-f][1,2,4]triazin-4-amine] showed an IC50 of 10 to 100 nM. Work on NC1CCN(Cc2ccn3ncnc(Nc4cccc(-c5nc(-c6ccccc6)no5)c4)c23)CC1 [Example 16, 5-((4-aminopiperidin-1-yl)methyl)-N-(3-(3-phenyl-1,2,4-oxadiazol-5-yl)phenyl)pyrrolo[2,1-f][1,2,4]triazin-4-amine] yielded an IC50 of 100 to 1000 nM. Cc1nnc(-c2cccc(Nc3ncnn4ccc(CN5CCC(N)CC5)c34)c2)s1 [Example 17, 5-((4-aminopiperidin-1-yl)methyl)-N-(3-(5-methyl-1,3,4-thiadiazol-2-yl)phenyl)pyrrolo[2,1-f][1,2,4]triazin-4-amine] gave an IC50 of 100 to 1000 nM. Work on CNC1CCN(Cc2ccn3ncnc(Nc4cccc(-c5nnc(C)s5)c4)c23)CC1 [Example 18, N-(3-(5-methyl-1,3,4-thiadiazol-2-yl)phenyl)-5-((4-(methylamino)piperidin-1-yl)methyl)pyrrolo[2,1-f][1,2,4]triazin-4-amine] yielded an IC50 of 100 to 1000 nM. In the case of Cc1nnc(-c2cccc(Nc3ncnn4ccc(CN5CC6CNCC6C5)c34)c2)s1 (stereo not shown) [Example 20, 5-((hexahydropyrrolo[3,4-c]pyrrol-2(1H)-yl)methyl)-N-(3-(5-methyl-1,3,4-thiadiazol-2-yl)phenyl)pyrrolo[2,1-f][1,2,4]triazin-4-amine], the IC50 is reported as 1000 to 5000 nM. For CCCc1nnc(-c2cccc(Nc3ncnn4ccc(CN5CCC(N)CC5)c34)c2)s1 [Example 21, 5-((4-aminopiperidin-1-yl)methyl)-N-(3-(5-propyl-1,3,4-thiadiazol-2-yl)phenyl)pyrrolo[2,1-f][1,2,4]triazin-4-amine], the IC50 was 10 to 100 nM. Compound NC1CCN(Cc2ccn3ncnc(Nc4cccc(-c5nnc(C6CC6)s5)c4)c23)CC1 [Example 23, 5-((4-aminopiperidin-1-yl)methyl)-N-(3-(5-cyclopropyl-1,3,4-thiadiazol-2-yl)phenyl)pyrrolo[2,1-f][1,2,4]triazin-4-amine] has an IC50 of 100 to 1000 nM. CNC1CCN(Cc2ccn3ncnc(Nc4cccc(-c5nnc(C6CC6)s5)c4)c23)CC1 [Example 24, N-(3-(5-cyclopropyl-1,3,4-thiadiazol-2-yl)phenyl)-5-((4-(methylamino)piperidin-1-yl)methyl)pyrrolo[2,1-f][1,2,4]triazin-4-amine] was tested, and the IC50 was 10 to 100 nM. NC1CN(Cc2ccn3ncnc(Nc4cccc(-c5nnc(C6CC6)s5)c4)c23)C1 [Example 25, 5-((3-aminoazetidin-1-yl)methyl)-N-(3-(5-cyclopropyl-1,3,4-thiadiazol-2-yl)phenyl)pyrrolo[2,1-f][1,2,4]triazin-4-amine] was tested, and the IC50 was 100 to 1000 nM. In the case of c1cc(Nc2ncnn3ccc(CN4CC5CNCC5C4)c23)cc(-c2nnc(C3CC3)s2)c1 (stereo not shown) [Example 26, N-(3-(5-cyclopropyl-1,3,4-thiadiazol-2-yl)phenyl)-5-((hexahydropyrrolo[3,4-c]pyrrol-2(1H)-yl)methyl)pyrrolo[2,1-f][1,2,4]triazin-4-amine], the IC50 is reported as 100 to 1000 nM. In the case of CNC1CCN(Cc2ccn3ncnc(Nc4cccc(-c5nnc(C(C)C)s5)c4)c23)CC1 [Example 27, N-(3-(5-isopropyl-1,3,4-thiadiazol-2-yl)phenyl)-5-((4-(methylamino)piperidin-1-yl)methyl)pyrrolo[2,1-f][1,2,4]triazin-4-amine], the IC50 is reported as 100 to 1000 nM. Compound CC(C)c1nnc(-c2cccc(Nc3ncnn4ccc(CN5CC(N)C5)c34)c2)s1 [Example 28, 5-((3-aminoazetidin-1-yl)methyl)-N-(3-(5-isopropyl-1,3,4-thiadiazol-2-yl)phenyl)pyrrolo[2,1-f][1,2,4]triazin-4-amine] has an IC50 of 100 to 1000 nM. Compound CC(C)c1nnc(-c2cccc(Nc3ncnn4ccc(CN5CC6CNCC6C5)c34)c2)s1 (stereo not shown) [Example 29, 5-((hexahydropyrrolo[3,4-c]pyrrol-2(1H)-yl)methyl)-N-(3-(5-isopropyl-1,3,4-thiadiazol-2-yl)phenyl)pyrrolo[2,1-f][1,2,4]triazin-4-amine] has an IC50 of 100 to 1000 nM. CNC1CCN(Cc2ccn3ncnc(Nc4cccc(-c5nnc(C(C)C)s5)c4)c23)C1 (stereo not shown) [Example 30, N-(3-(5-isopropyl-1,3,4-thiadiazol-2-yl)phenyl)-5-((3-(methylamino)pyrrolidin-1-yl)methyl)pyrrolo[2,1-f][1,2,4]triazin-4-amine] showed an IC50 of 100 to 1000 nM. For CC(C)c1nnc(-c2cccc(Nc3ncnn4ccc(CN5CCC(CN)C5)c34)c2)s1 (stereo not shown) [Example 31, 5-((3-(aminomethyl)pyrrolidin-1-yl)methyl)-N-(3-(5-isopropyl-1,3,4-thiadiazol-2-yl)phenyl)pyrrolo[2,1-f][1,2,4]triazin-4-amine], the IC50 was 100 to 1000 nM. For CC(C)c1nnc(-c2cccc(Nc3ncnn4ccc(CN5CCC(N)C5)c34)c2)s1 (stereo not shown) [Example 32, 5-((3-aminopyrrolidin-1-yl)methyl)-N-(3-(5-isopropyl-1,3,4-thiadiazol-2-yl)phenyl)pyrrolo[2,1-f][1,2,4]triazin-4-amine], the IC50 was 100 to 1000 nM. Compound CC(C)CNC(=O)c1cccc(Nc2ncnn3ccc(CN4CCC(N)CC4)c23)c1 [Example 33, 3-((5-((4-aminopiperidin-1-yl)methyl)pyrrolo[2,1-f][1,2,4]triazin-4-yl)amino)-N-isobutylbenzamide] has an IC50 of 10 to 100 nM. For CC(C)n1nnc(-c2cccc(Nc3ncnn4ccc(CN5CCNCC5)c34)c2)n1 [Example 34, N-(3-(2-isopropyl-2H-tetrazol-5-yl)phenyl)-5-(piperazin-1-ylmethyl)pyrrolo[2,1-f][1,2,4]triazin-4-amine], the IC50 was 10 to 100 nM.
